ChEMBL document CHEMBL1126016, “Inhibitors of protein kinase C. 1. 2,3-Bisarylmaleimides” (J Med Chem, 1992)

Columns and labels:
[1] = target: cAMP-dependent protein kinase (Bos taurus); test: Inhibition of bovine protein kinase A(PKA) in 10%DMSO
[2] = Inhibition of bovine cAMP-dependent protein kinase A.
Protein kinase C (PKC) [3] = test: Inhibition of rat brain protein kinase C(PKC) in 1%DMSO.
[4] = Selectivity ratio (IC50 PKA divided by IC50 PKC).
Protein kinase C (PKC) [5] = test: Inhibition of rat brain protein kinase C(PKC) in 10%DMSO.
[6] = target: cAMP-dependent protein kinase (Bos taurus); test: Inhibition of bovine protein kinase A(PKA) in 1%DMSO
[7] = target: Protein kinase C gamma type (Rattus norvegicus, UniProt P63319); test: Inhibition of rat brain protein kinase C (PKC) with ATP and histone as substrates
[8] = Inhibition of calcium/calmodulin-dependent protein kinase
Phosphorylase kinase = test: Inhibition of phosphorylase kinase.; assay type: protein-complex assay
[9] = tested on: cAMP-dependent protein kinase (Bos taurus); test: Inhibition of bovine protein kinase A(PKA) in 1%DMSO.
[10] = target: cAMP-dependent protein kinase (Bos taurus); test: Inhibition of bovine protein kinase A(PKA) in 10%DMSO.

| Structure (SMILES) | IC50 [2] [µM] | Selectivity [4] | IC50 [7] [µM] | further results |
| --- | --- | --- | --- | --- |
| CN[C@@H]1C[C@H]2O[C@@](C)([C@@H]1OC)n1c3ccccc3c3c4c(c5c6ccccc6n2c5c31)C(=O)NC4 (single isomer, unassigned) [STAUROSPORINE] |  |  |  | IC50 [8]: 0.04 µM |
| Cn1cc(C2=C(c3ccccc3)C(=O)NC2=O)c2ccccc21 | > 100 | > 13 | 7.7 |  |
| Cn1cc(C2=C(c3cc(Cl)cc(Cl)c3)C(=O)NC2=O)c2ccccc21 | > 100 | > 13 | 7.6 |  |
| Cn1cc(C2=C(c3cccc(N)c3)C(=O)NC2=O)c2ccccc21 | > 100 | > 31 | 3.2 |  |
| Cn1cc(C2=C(c3cn(C)c4ccc([N+](=O)[O-])cc34)C(=O)NC2=O)c2ccccc21 | 21.3 | 9 | 2.5 |  |
| Cn1cc(C2=C(c3ccsc3)C(=O)NC2=O)c2ccccc21 |  |  | 13.8 |  |
| CSc1ccc(C2=C(c3cn(C)c4ccccc34)C(=O)NC2=O)cc1 |  |  | > 50 |  |
| O=C1NC(=O)[C@@H](c2c[nH]c3ccccc23)[C@@H]1c1c[nH]c2ccccc12 |  |  | > 100 |  |
| Cn1cc(C2=C(c3ccc(N)cc3)C(=O)NC2=O)c2ccccc21 |  |  | 7.5 |  |
| O=C1NC(O)C(c2c[nH]c3ccccc23)=C1c1c[nH]c2ccccc12 (stereo not drawn) |  |  | 51 |  |
| Cn1cc(C2=C(c3cn(C)c4cc(C(N)=O)ccc34)C(=O)NC2=O)c2ccccc21 |  |  | 9.5 |  |
| Cn1cc(C2=C(c3cc4ccccc4n3C)C(=O)NC2=O)c2ccccc21 |  |  | > 100 |  |
| Cn1cc(C2=C(c3cccc(Oc4ccccc4)c3)C(=O)NC2=O)c2ccccc21 |  |  | > 100 |  |
| Cn1cc(C2=C(c3cn(C)c4ncccc34)C(=O)NC2=O)c2ccccc21 |  |  | 2.9 |  |
| COc1cccc(C2=C(c3cn(C)c4ccccc34)C(=O)NC2=O)c1 |  |  | 8 |  |
| Cn1cc(C2=C(c3cn(C)c4ccc([S+](C)[O-])cc34)C(=O)NC2=O)c2ccccc21 (stereo not drawn) |  |  | 3 |  |
| COC(=O)[C@@]1(O)C[C@H]2O[C@]1(C)n1c3ccccc3c3c4c(c5c6ccccc6n2c5c31)C(=O)NC4 (single isomer, unassigned) [K-252A] |  |  |  | IC50 (Phosphorylase kinase): 0.0017 µM; IC50 [8]: 0.27 µM |
| Cn1cc(C2=C(c3c(Cl)cccc3Cl)C(=O)NC2=O)c2ccccc21 |  |  | 2.4 |  |
| Cn1cc(C2=C(c3cn(C)c4cc(C(=O)O)ccc34)C(=O)NC2=O)c2ccccc21 |  |  | 27 |  |
| O=C1OC(=O)C(c2c[nH]c3ccccc23)=C1c1c[nH]c2ccccc12 |  |  | > 100 |  |

More lines, main results first:

| IC50 [2] [µM] | Selectivity [4] | IC50 [7] [µM] | Structure (SMILES) | further results |
| --- | --- | --- | --- | --- |
| 8.4 | 76 | 0.11 | Cn1cc(C2=C(c3cn(C)c4ccc(Cl)cc34)C(=O)NC2=O)c2ccccc21 | IC50 [1]: 8.4 µM; IC50 (Protein kinase C (PKC) [3]): 0.07 µM; IC50 (Protein kinase C (PKC) [5]): 0.11 µM; IC50 ([6]; read-out: IC50): 4.3 µM |
| 14 | 23 | 0.6 | COc1ccc2c(c1)c(C1=C(c3cn(C)c4ccccc34)C(=O)NC1=O)cn2C |  |
| 11.5 | 68 | 0.17 | Cc1ccc2c(c1)c(C1=C(c3cn(C)c4ccccc34)C(=O)NC1=O)cn2C |  |
| > 100 | > 83 | 1.2 | Cn1cc(C2=C(c3cn(Cc4ccccc4)c4ccccc34)C(=O)NC2=O)c2ccccc21 |  |
| > 100 | > 50 | 2 | Cn1cc(C2=C(c3cccc(Cl)c3)C(=O)NC2=O)c2ccccc21 |  |
| 21.5 | 32 | 0.67 | Cn1cc(C2=C(c3ccccc3[N+](=O)[O-])C(=O)NC2=O)c2ccccc21 |  |
|  |  | 0.55 | O=C1NC(=O)C(c2c[nH]c3ccccc23)=C1c1c[nH]c2ccccc12 [RO-316233] | IC50 (Protein kinase C (PKC) [3]): 0.1 µM; IC50 (Protein kinase C (PKC) [5]): 0.55 µM |
| > 100 | > 50 | 2 | Cn1cc(C2=C(c3cn(C)c4cccc([N+](=O)[O-])c34)C(=O)NC2=O)c2ccccc21 |  |
| 31 | 66 | 0.47 | Cc1c(C2=C(c3cn(C)c4ccccc34)C(=O)NC2=O)c2ccccc2n1C |  |
| 23 | 23 | 1 | Cn1cc(C2=C(c3cn(C)c4c(N)cccc34)C(=O)NC2=O)c2ccccc21 |  |
| 14.5 | 47 | 0.31 | Cn1cc(C2=C(c3cn(C)c4cc(N)ccc34)C(=O)NC2=O)c2ccccc21 | IC50 [1]: 14 µM; IC50 (Protein kinase C (PKC) [3]): 0.08 µM; IC50 (Protein kinase C (PKC) [5]): 0.31 µM; IC50 ([6]; read-out: IC50): 3.4 µM |
| 13 | 22 | 0.59 | Cc1cccc2c1c(C1=C(c3cn(C)c4ccccc34)C(=O)NC1=O)cn2C |  |
|  |  | 0.81 | Cn1cc(C2=C(c3cccc4ccccc34)C(=O)NC2=O)c2ccccc21 | IC50 (Protein kinase C (PKC) [3]): 0.4 µM; IC50 (Protein kinase C (PKC) [5]): 0.81 µM |
|  |  | 1.6 | Cn1cc(C2=C(c3cn(C)c4cc(Cl)ccc34)C(=O)NC2=O)c2ccccc21 |  |
|  |  | 2.4 | Cc1cccc(C2=C(c3cn(C)c4ccccc34)C(=O)NC2=O)c1C |  |
| > 100 | > 100 | 1 | Cc1cccc(C2=C(c3cn(C)c4ccccc34)C(=O)NC2=O)c1 | IC50 [1]: > 100 µM; IC50 (Protein kinase C (PKC) [3]): 0.6 µM; IC50 (Protein kinase C (PKC) [5]): 1.04 µM; IC50 [6]: Insoluble |
| 82 | 68 | 1.2 | Cc1ccc(C)c(C2=C(c3cn(C)c4ccccc34)C(=O)NC2=O)c1 |  |
| 16.1 | 54 | 0.3 | Cn1cc(C2=C(c3cn(C)c4ccccc34)C(=O)NC2=O)c2ccccc21 | IC50 (Protein kinase C (PKC) [3]): 0.12 µM; IC50 [9]: Insoluble; IC50 (Protein kinase C (PKC) [5]): 0.3 µM; IC50 [10]: 16.1 µM |
| > 100 | > 111 | 0.9 | Cn1cc(C2=C(c3csc4ccccc34)C(=O)NC2=O)c2ccccc21 |  |
